The species named for assay [1] is Rattus norvegicus. The assay can be described thus: Negative logarithm of the molar concentration required to relax rat aorta precontracted with 30 mM KCL by 50% of intrinsic activity. The assay is classed as functional.
For assay [2], the species on record is Rattus norvegicus. The assay can be described thus: Intrinsic activity determined in rat aorta. The assay is classed as functional.

pEC50: −log10 of the molar value.

One may read the pEC50 as the negative decadic logarithm of the EC50, by convention in mol/L. Read a low pEC50 as a high EC50. The compound `O=C1CCCN1C1=CC(CF)(CF)Oc2ccc([N+](=O)[O-])cc21` had a pEC50 in assay [1] of 8.11. This compound also showed an IA in assay [2] of 74.3%.
The corresponding values for `N#Cc1ccc2c(c1)C(N1CCCC1=O)=CC(CF)(CF)O2` are 6.99 and 74.4%.
In turn, `O=C1CCCN1C1=CC(CF)(CF)Oc2ccc(C(F)(F)C(F)(F)F)cc21` showed a pEC50 in assay [1] of 8.82. This compound showed an IA in assay [2] of 68.6%.
For `O=C1CCCCN1C1=CC(CF)(CF)Oc2ccc([N+](=O)[O-])cc21`, in assay [1], the pEC50 is 7.76. This compound came in with an IA in assay [2] of 69.7%.
Consider `CC1(C)C=C(n2ccccc2=O)c2cc(C#N)ccc2O1` [BIMAKALIM], for which the pEC50 in assay [1] is 7.52. The IA in assay [2] is 70.2%.
Consider `O=C1CCCCN1[C@@H]1c2cc([N+](=O)[O-])ccc2OC(CF)(CF)[C@H]1O`, for which, in assay [1], the pEC50 is 8.56. Moreover, in assay [2], the IA was determined as 63.3%.
The corresponding values for `O=C1CCCCN1[C@@H]1c2cc(C(F)(F)C(F)(F)F)ccc2OC(CF)(CF)[C@H]1O` are 8.41 and 65.6%.
In assay [1], `O=C1CCCCN1C1=CC(CF)(CF)Oc2ccc(C(F)(F)C(F)(F)F)cc21` gave a pEC50 of 8.25. In assay [2], this compound came in with an IA of 72%.
For `N#Cc1ccc2c(c1)[C@@H](N1CCCCC1=O)[C@H](O)C(CF)(CF)O2`, the pEC50 in assay [1] was 8.05. In addition, in assay [2], the IA came out at 74.9%.
The corresponding values for `N#Cc1ccc2c(c1)[C@@H](n1ccccc1=O)[C@H](O)C(CF)(CF)O2` are 6.83 and 78.7%.
Take `[O-][n+]1ccccc1C1=CC(CF)(CF)Oc2ccc(C(F)(F)C(F)(F)F)cc21`: the pEC50 in assay [1] was 8.77. Also, the IA in assay [2] turned out to be 68.2%.
Consider `CC1(C)Oc2ccc(C#N)cc2[C@@H](N2CCCC2=O)[C@@H]1O` [CROMAKALIM], for which the IA in assay [2] turned out to be 74.7%.
Regarding `O=C1CCCN1[C@@H]1c2cc([N+](=O)[O-])ccc2OC(CF)(CF)[C@H]1O`, the pEC50 in assay [1] is 7.62. In assay [2], the IA was found to be 72.7%.
The corresponding values for `O=C1CCCN1[C@@H]1c2cc(C(F)(F)C(F)(F)F)ccc2OC(CF)(CF)[C@H]1O` are 8.20 and 77.6%.
As to `N#Cc1ccc2c(c1)C(N1CCCCC1=O)=CC(CF)(CF)O2`, the pEC50 in assay [1] was 6.79. In assay [2], this compound returned an IA of 68.7%.
With `O=c1ccccn1[C@@H]1c2cc(C(F)(F)C(F)(F)F)ccc2OC(CF)(CF)[C@H]1O`, the negative logarithm of the EC50 (pEC50) in assay [1] was 7.92. In addition, in assay [2], the IA is 82.8%.
In turn, `N#Cc1ccc2c(c1)[C@@H](N1CCCC1=O)[C@H](O)C(CF)(CF)O2` showed a negative-log EC50 (pEC50) in assay [1] of 7.07. In assay [2], this compound gave an IA of 78%.
Turning to `O=c1ccccn1[C@@H]1c2cc([N+](=O)[O-])ccc2OC(CF)(CF)[C@H]1O`, the pEC50 in assay [1] was 7.54. This compound displayed an IA in assay [2] of 74.5%.
`O=c1ccccn1C1=CC(CF)(CF)Oc2ccc(C(F)(F)C(F)(F)F)cc21` had a pEC50 in assay [1] of 8.53. Also, the IA in assay [2] came out at 69.2%.
In the case of `O=c1ccccn1C1=CC(CF)(CF)Oc2ccc([N+](=O)[O-])cc21`, the pEC50 in assay [1] was 8.61. The IA in assay [2] is on record as 64.9%.
In assay [1], `N#Cc1ccc2c(c1)C(n1ccccc1=O)=CC(CF)(CF)O2` showed a pEC50 of 7.61. Also, the IA in assay [2] was determined as 75.7%.
`CC(N/C(=N\C#N)Nc1ccncc1)C(C)(C)C` (configuration not stated) [PINACIDIL ANHYDROUS]: the IA in assay [2] worked out at 91.9%.

The values are drawn from ChEMBL document CHEMBL1127714, “Vasorelaxant activity of 2-fluoromethylbenzopyran K+ channel openers” (Bioorg Med Chem Lett, 1994).
